{"source": "patent US10130611B2", "about": "“Use of benzo-heterocycle derivatives for preventing and treating cancer or for inhibiting cancer metastasis” (MEDICINAL BIOCONVERGENCE RESEARCH CENTER, priority 2009, dated 2018)"}
{"tested_on": "KRS", "assay": "Laminin-induced phosphorylation of KRS (immunoblot p-Thr, -Ser, -Tyr)", "format": "cell-based, human", "conditions": "A549 cells transfected with Myc-KRS, inhibitor then laminin", "method": "(§1) In FIG. 7, A549 cells were treated with laminin (10 μg/ml), and the levels of 67LR, 37LRP and KRS were determined by western blotting at the indicated times. Hsp90 and cadherin (Cad) were used as markers for cytoplasm and membrane, respectively. In FIG. 8, A549 cells untreated or treated with laminin for 1 hour were subjected to immunofluorescence staining with anti-67LR (MLuC5, Santacruz, sc-59732) (red) and KRS antibodies (green). In FIG. 9, A549 cells were treated with U73122 (U), staurosporin (ST) and LY294002 (LY) that inhibit PLC-gamma, PKC and PI3K, respectively, for 3 hours, and then treated with laminin for 1 hour. Then, it was determined how these kinase inhibitors would affect the cytoplasm and membrane of 67LR and KRS. In FIG. 10, A549 cells were transfected with Myc-KRS, and incubated for 24 hours. Then, the cells were treated with the indicated drugs and then with laminin as above. Myc-KRS was immunoprecipitated, and immunoblotted with anti-p-Thr, -Ser, and -Tyr antibodies. In FIG. 11, A549 cells were transfected with Myc-KRS, and cultured for 24 hours. […] Myc-KRS was immunoprecipitated, and co-precipitation of 67LR was determined by western blotting. […] EPRS (glutamyl-prolyl-tRNA synthetase) was immunoprecipitated with its specific antibody (AbCam), and co-precipitation of KRS was determined by western blotting (upper). […]"}
{"smiles": "CN[C@@H]1C[C@H]2O[C@@](C)([C@@H]1OC)n1c3ccccc3c3c4c(c5c6ccccc6n2c5c31)C(=O)NC4", "note": "[staurosporin]", "laminin-induced phosphorylated KRS at threonine and serine": "did not have any effect"}
{"target": "T1, interaction between KRS and laminin receptor (67LR) (Homo sapiens, UniProt Q15046)", "T1 construct": "expressed in transfected cells; host or cells: yeast EGY/SH cells", "T1 sequence (Q15046 whole entry)": "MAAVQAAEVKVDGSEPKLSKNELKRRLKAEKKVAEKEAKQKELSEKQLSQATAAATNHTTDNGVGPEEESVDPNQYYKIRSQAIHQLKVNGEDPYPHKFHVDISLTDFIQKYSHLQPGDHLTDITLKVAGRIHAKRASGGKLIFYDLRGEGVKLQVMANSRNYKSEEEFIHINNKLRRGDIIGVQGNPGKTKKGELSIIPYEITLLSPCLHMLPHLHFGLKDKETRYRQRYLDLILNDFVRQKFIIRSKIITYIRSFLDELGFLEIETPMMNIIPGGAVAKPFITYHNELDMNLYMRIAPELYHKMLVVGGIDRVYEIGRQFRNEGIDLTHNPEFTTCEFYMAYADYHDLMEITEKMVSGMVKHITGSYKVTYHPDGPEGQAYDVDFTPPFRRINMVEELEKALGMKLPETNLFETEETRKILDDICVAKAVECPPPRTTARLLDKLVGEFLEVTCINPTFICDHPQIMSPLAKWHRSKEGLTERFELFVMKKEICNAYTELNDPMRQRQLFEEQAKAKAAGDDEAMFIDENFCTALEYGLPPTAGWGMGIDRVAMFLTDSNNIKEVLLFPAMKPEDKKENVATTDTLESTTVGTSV", "assay": "Yeast two hybrid growth assay, LexA-KRS/B42-LR pair", "format": "cell-based", "conditions": "growth inhibition of yeast EGY/SH cells with LexA-KRS/B42-LR vs control; 1 μl of 10 mg/ml compound per well, 6 days, absorbance 540 nm", "method": "(§2) On the compound of the present invention obtained by screening a library of compounds, the extent of inhibition on the interaction between KRS and laminin receptor (67LR) was determined by a yeast two hybrid assay, as described below. KRS, LR, AIMP2, AIMP3 and MRS were cloned at LexA vector (clontech) and B42 vector (clontech) each so as to produce required vectors. From among the vectors, LexA-KRS vector and B42-LR vector were co-transformed into yeast EGY/SH cells, and then the yeast cells were diluted to an absorbance (540 nm wavelength) of 0.2 in galactose medium not containing uracil (Ura), histidine (His), tryptophane (Trp) and leucine (Leu), and placed in an amount of 200 u in a 96 well plate. 1 μl of each compound at a concentration of 10 mg/ml was placed in each well, incubated for 6 days, and the absorbance was measured at 540 nm. […] The inhibitory specificity of the selected compound was tested by using two different interaction pairs such as LexA-KRS/B42-AIMP2 and LexA-MRS/B42-AIMP3.\n(§3) In order to determine if the compound of the present invention controls the interaction between KRS and laminin receptor, the present inventors determined the interaction between KRS and 67LR through treatment of the compound of the present invention.", "units": {"Inhibition rate(%)": "%"}}
{"smiles": "COc1ccc2oc(NC(=O)c3ccccc3)nc2c1", "note": "[Compound of formula 3, N-(5-Methoxy-benzooxazol-2-yl)-benzamide]", "Inhibition rate(%)": 59.98}
{"target": "T1, interaction between KRS and laminin receptor (67LR)", "assay": "Yeast two hybrid growth assay, LexA-KRS/B42-LR pair", "format": "cell-based", "conditions": "growth inhibition of yeast EGY/SH cells with LexA-KRS/B42-LR vs control; 1 μl of 10 mg/ml compound per well, 6 days, absorbance 540 nm; read-out: Inhibition rate(%)", "method": "as §2, §3", "units": {"inhibition at 10000 µg/mL (stock)": "%"}}
{"smiles": "COc1ccc2nc(NC(=O)c3ccccc3)oc2c1", "note": "[Compound of formula 2, N-(6-Methoxy-benzooxazol-2-yl)-benzamide]", "inhibition at 10000 µg/mL (stock)": 54.2}
{"smiles": "Clc1ccc2oc(Nc3ccccc3)nc2c1", "note": "[Compound of formula 4, (5-Chloro-benzooxazol-2-yl)-phenyl-amine]", "inhibition at 10000 µg/mL (stock)": 51.8}
{"smiles": "CCc1ccc(Nc2nc3cc(Cl)ccc3o2)cc1", "note": "[Compound of formula 5, (5-Chloro-benzooxazol-2-yl)-(4-ethyl-phenyl)-amine]", "inhibition at 10000 µg/mL (stock)": 47.5}
{"smiles": "Clc1ccc2oc(Nc3ccc(Cl)c(Cl)c3)nc2c1", "note": "[Compound of formula 6, (5-Chloro-benzooxazol-2-yl)-(3,4-dichloro-phenyl)-amine]", "inhibition at 10000 µg/mL (stock)": 52.8}
{"smiles": "O=[N+]([O-])c1ccc2oc(Nc3ccc(/N=N/c4ccccc4)cc3)nc2c1", "note": "[Compound of formula 7, (5-Nitro-benzooxazol-2-yl)-(4-phenylazo-phenyl)-amine]", "inhibition at 10000 µg/mL (stock)": 47.6}
{"smiles": "O=C(Nc1nc2ccccc2o1)c1ccccc1", "note": "[Compound of formula 8, N-Benzooxazol-2-yl-benzamide]", "inhibition at 10000 µg/mL (stock)": 47.3}
{"smiles": "O=C(Nc1nc2cc([N+](=O)[O-])ccc2o1)c1ccccc1", "note": "[Compound of formula 9, N-(5-Nitro-benzooxazol-2-yl)-benzamide]", "inhibition at 10000 µg/mL (stock)": 36.9}
{"smiles": "COc1ccc2oc(NC(=O)c3ccccc3)nc2c1", "note": "[Compound of formula 10, N-(5-Methoxy-benzooxazol-2-yl)-benzamide]", "inhibition at 10000 µg/mL (stock)": 60}
{"smiles": "Cc1ccc2oc(NC(=O)c3ccccc3)nc2c1", "note": "[Compound of formula 11, N-(5-Methyl-benzooxazol-2-yl)-benzamide]", "inhibition at 10000 µg/mL (stock)": 49.1}
{"smiles": "O=C(Nc1nc2ccc([N+](=O)[O-])cc2s1)c1ccc(C(F)(F)F)cc1", "note": "[Compound of formula 12, N-(6-Nitro-benzothiazol-2-yl)-4-trifluoromethyl-benzamide]", "inhibition at 10000 µg/mL (stock)": 52.5}
{"smiles": "Cc1ccc2oc(-c3ccccc3OCC(=O)O)nc2c1", "note": "[Compound of formula 13, [2-(5-Methyl-benzooxazol-2-yl)-phenoxy]-acetic acid]", "inhibition at 10000 µg/mL (stock)": 55.2}
{"smiles": "Cc1cc(C)c(-c2nc3cc(N)ccc3o2)c(C)c1", "note": "[Compound of formula 14, 2-(2,4,6-Trimethyl-phenyl)-benzooxazol-5-ylamine]", "inhibition at 10000 µg/mL (stock)": 49.3}
{"smiles": "COc1cccc(OC)c1-c1nc2ccccc2s1", "note": "[Compound of formula 16, 2-(2,6-Dimethoxy-phenyl)-benzothiazole]", "inhibition at 10000 µg/mL (stock)": 47.6}
{"smiles": "Fc1ccc(CNCc2c[nH]c3ccc(F)cc23)c(Cl)c1", "note": "[Compound of formula 17, (2-Chloro-4-fluoro-benzyl)-(5-fluoro-1H-indol-3-ylmethyl)-amine]", "inhibition at 10000 µg/mL (stock)": 36.5}
{"tested_on": "A549 cells", "assay": "Laminin-dependent membrane translocation of KRS and 67LR with kinase inhibitors", "format": "cell-based, human", "conditions": "inhibitor 3 hours then laminin 1 hour", "method": "as §1"}
{"smiles": "COc1ccc2c(c1)CC[C@@H]1[C@@H]2CC[C@]2(C)[C@@H](NCCCCCCN3C(=O)C=CC3=O)CC[C@@H]12", "note": "[U73122]", "Laminin-dependent increase of KRS and 67LR in the membrane fraction": "larger laminin-dependent increase of 67LR than those in the control group"}
{"smiles": "CN[C@@H]1C[C@H]2O[C@@](C)([C@@H]1OC)n1c3ccccc3c3c4c(c5c6ccccc6n2c5c31)C(=O)NC4", "note": "[staurosporin]", "Laminin-dependent increase of KRS and 67LR in the membrane fraction": "larger laminin-dependent increase of 67LR than those in the control group"}
